Drawing on the NIST ThermoML archive (doi:10.1016/j.jct.2013.10.005), this text covers mass density for one compound.

For the data set the following is noted: 298 K; 101.33 kPa; Crystal; X-ray diffraction.

Molecules are shown by their SMILES. Numbers after ± are expanded uncertainties.

In general, mass density refers to mass per unit of volume.

In the case of `O.O.O.O.O=C([O-])[C@H](O)[C@@H](O)[C@H](O)[C@H](O)CO.O=C([O-])[C@H](O)[C@@H](O)[C@H](O)[C@H](O)CO.[Ba+2]` [barium D-gluconate tetrahydrate], the mass density was 1969 ± 10 kg/m3.
